Test results taken from patent publication US20180228795A1, “COMBINATION THERAPY FOR CANCER” (Eli Lilly and Company, priority 2015, published 2018).

Columns and labels:
Type in all cases: in vivo
PDX mouse models of TNBC = experiment: Antitumor effects across the panel of 40 PDX mouse models of TNBC; conditions: range across PDX TNBC models of Table 4
Text: Establish PDX tumor models from viable human tumor tissue and serially passage in immunocompromised female mice a limited number of times. Using tumor fragments harvested from donor host animals, perform unilateral subcutaneous implants from a specific passage of the PDX tumor model on the flanks of the experimental animals. When tumor volumes reach approximately 150-250 mm^3 in size, randomize the animals by treatment arm by randomization techniques well known in the art and place into their respective treatment groups using 1 animal per treatment group (3 animals in an untreated group). […]
Capture tumor size and body weight twice per week. Estimate tumor volume (V) by using the formula: V=(π/6)×L×W^2 where L=larger of measured diameter and W=smaller perpendicular diameter. Calculate relative tumor volume using the tumor volume measurement taken nearest to the last day of dosing for each animal (T), divided by the baseline tumor volume for that animal (T0), which is the volume recorded on or just prior to the first day of dosing, Y=T/T0. […] Tumor growth inhibition is observed in those instances where the calculated values for % ΔT/ΔC are less than 100% whereby greater inhibition results in smaller % ΔT/ΔC values. If ΔT<0, then a tumor regression value is calculated instead of % ΔT/ΔC whereby % Regression=100(YT−1). […]

PDX TNBC Model CTG-1340 = experiment: Antitumor effects in PDX mouse model of TNBC; conditions: PDX model CTG-1340; A 10 mg/kg SC BID 3 days on/4 off ×4; B 7.5 mg/kg PO BID×28; versus vehicle
Text: (§1) Establish PDX tumor models from viable human tumor tissue and serially passage in immunocompromised female mice a limited number of times. Using tumor fragments harvested from donor host animals, perform unilateral subcutaneous implants from a specific passage of the PDX tumor model on the flanks of the experimental animals. When tumor volumes reach approximately 150-250 mm^3 in size, randomize the animals by treatment arm by randomization techniques well known in the art and place into their respective treatment groups using 1 animal per treatment group (3 animals in an untreated group). Formulate CHK1 inhibitor, 5-(5-(2-(3-aminopropoxy)-6-methoxyphenyl)-1H-pyrazol-3-ylamino)pyrazine-2-carbonitrile methanesulfonate hydrate, (Compound A) every 14 days in 20% captisol (dissolved in water) and administer subcutaneously twice daily at a dose of 10 mg/kg on days 1/2/3 of a weekly cycle for 4 weeks (SC, BID [3 days on/4 off]×4). Formulate the PI3K/mTOR dual inhibitor, 8-[5-(1-hydroxy-1-methylethyl)pyridin-3-yl]-1-[(2S)-2-methoxypropyl]-3-methyl-1,3-dihydro-2H-imidazo[4,5-c]quinolin-2-one, (Compound B) weekly in 1% (HEC)/0.25% Tween 80 (Polysorbate 80)/0.05% Dow-Corning Antifoam 1510-US and administer by oral gavage twice-daily for 28 days (PO, BID×28) at a dose of 7.5 mg/kg. Dose combination treatment animals with both compounds according to the schedule described above for monotherapy, and dose vehicle treatment animals with vehicle according to the schedule for Compound B.
(§2) Test the combination of Compound A and Compound B, as well as their respective monotherapies, in 40 PDX models (Table 1) of TNBC. Assess antitumor efficacy of the treatment groups by measuring tumor volume via caliper measurements twice a week during the course of the study. Measure body weight twice weekly during the course of the study as a general indicator of tolerability.
(§3) Capture tumor size and body weight twice per week. Estimate tumor volume (V) by using the formula: V=(π/6)×L×W^2 where L=larger of measured diameter and W=smaller perpendicular diameter. Calculate relative tumor volume using the tumor volume measurement taken nearest to the last day of dosing for each animal (T), divided by the baseline tumor volume for that animal (T0), which is the volume recorded on or just prior to the first day of dosing, Y=T/T0. Calculate % ΔT/ΔC values using the formula % ΔT/ΔC=100(YT−1)/(YC−1), whereby YT or YC=geometric mean relative volume of the compound treated group or the control group, respectively. Tumor growth inhibition is observed in those instances where the calculated values for % ΔT/ΔC are less than 100% whereby greater inhibition results in smaller % ΔT/ΔC values. If ΔT<0, then a tumor regression value is calculated instead of % ΔT/ΔC whereby % Regression=100(YT−1). Note that negative values indicate regression. We collectively refer to % ΔT/ΔC and % Regression as % Response.
(§4) Examine relative tumor volume (final volume divided by baseline volume) on the last day of treatment or the last day on which data from all three treatment groups and vehicle is available, if it is earlier than the last day of treatment and at least 14 days after baseline. Expected additive relative volume is determined using the Bliss method (Bliss, C. I., Ann Appl Biol, 1939; 26(3):585-615). Specifically, denoting Y=relative volume, YExp=(Y1*Y2)/YV, where YExp=expected additive relative volume, Y1 and Y2 are the relative volumes in the single agent groups (Compound A and Compound B), and YV is the relative volume in the vehicle group. A range of additivity is defined around the expected additive relative volume via upper and lower limits as follows:
(§5) Yupper=max(2*YExp,YExp+0.2)
(§6) Ylower=min(YExp/2,YExp−0.2)
(§7) The upper limit of the range is the larger of 2-fold above or 20% above the expected additive relative volume, and the lower limit is the smaller of 2-fold below or 20% below the expected additive relative volume. […]

PDX TNBC Model CTG-1167 = experiment: Antitumor effects in PDX mouse model of TNBC; conditions: PDX model CTG-1167; A 10 mg/kg SC BID 3 days on/4 off ×4; B 7.5 mg/kg PO BID×28; versus vehicle
Text: as §1, §2, §3, §4, §5, §6, §7

PDX TNBC Model CTG-1242 = experiment: Antitumor effects in PDX mouse model of TNBC; conditions: PDX model CTG-1242; A 10 mg/kg SC BID 3 days on/4 off ×4; B 7.5 mg/kg PO BID×28; versus vehicle
Text: as §1, §2, §3, §4, §5, §6, §7

PDX TNBC Model CTG-1350 = experiment: Antitumor effects in PDX mouse model of TNBC; conditions: PDX model CTG-1350; A 10 mg/kg SC BID 3 days on/4 off ×4; B 7.5 mg/kg PO BID×28; versus vehicle
Text: as §1, §2, §3, §4, §5, §6, §7

PDX TNBC Model MAXF 1384 = experiment: Antitumor effects in PDX mouse model of TNBC; conditions: PDX model MAXF 1384; A 10 mg/kg SC BID 3 days on/4 off ×4; B 7.5 mg/kg PO BID×28; versus vehicle
Text: as §1, §2, §3, §4, §5, §6, §7

PDX TNBC Model MAXF 449 = experiment: Antitumor effects in PDX mouse model of TNBC; conditions: PDX model MAXF 449; A 10 mg/kg SC BID 3 days on/4 off ×4; B 7.5 mg/kg PO BID×28; versus vehicle
Text: as §1, §2, §3, §4, §5, §6, §7

PDX TNBC Model CTG-0986 = experiment: Antitumor effects in PDX mouse model of TNBC; conditions: PDX model CTG-0986; A 10 mg/kg SC BID 3 days on/4 off ×4; B 7.5 mg/kg PO BID×28; versus vehicle
Text: as §1, §2, §3, §4, §5, §6, §7

PDX TNBC Model ST575 = experiment: Antitumor effects in PDX mouse model of TNBC; conditions: A 10 mg/kg SC BID 3 days on/4 off ×4, B 7.5 mg/kg PO BID×28, versus vehicle
Text: as §1, §2, §3, §4, §5, §6, §7

PDX TNBC Model CTG-0018 = experiment: Antitumor effects in PDX mouse model of TNBC; conditions: PDX model CTG-0018; A 10 mg/kg SC BID 3 days on/4 off ×4; B 7.5 mg/kg PO BID×28; versus vehicle
Text: as §1, §2, §3, §4, §5, §6, §7

PDX TNBC Model ST1283 = experiment: Antitumor effects in PDX mouse model of TNBC; conditions: A 10 mg/kg SC BID 3 days on/4 off ×4, B 7.5 mg/kg PO BID×28, versus vehicle
Text: as §1, §2, §3, §4, §5, §6, §7

PDX TNBC Model CTG-0052 = experiment: Antitumor effects in PDX mouse model of TNBC; conditions: PDX model CTG-0052; A 10 mg/kg SC BID 3 days on/4 off ×4; B 7.5 mg/kg PO BID×28; versus vehicle
Text: as §1, §2, §3, §4, §5, §6, §7

| SMILES | efficacy values, % response, range over the models (PDX mouse models of TNBC) | % Rsp. (% ΔT/ΔC or % Regression) (PDX TNBC Model CTG-1340) [%] | % Rsp. (% ΔT/ΔC or % Regression) (PDX TNBC Model CTG-1167) [%] | % Rsp. (% ΔT/ΔC or % Regression) (PDX TNBC Model CTG-1242) [%] | % Rsp. (% ΔT/ΔC or % Regression) (PDX TNBC Model CTG-1350) [%] | % Rsp. (% ΔT/ΔC or % Regression) (PDX TNBC Model MAXF 1384) [%] | % Rsp. (% ΔT/ΔC or % Regression) (PDX TNBC Model MAXF 449) [%] | % Rsp. (% ΔT/ΔC or % Regression) (PDX TNBC Model CTG-0986) [%] | % Rsp. (% ΔT/ΔC or % Regression) (PDX TNBC Model ST575) [%] | % Rsp. (% ΔT/ΔC or % Regression) (PDX TNBC Model CTG-0018) [%] | % Rsp. (% ΔT/ΔC or % Regression) (PDX TNBC Model ST1283) [%] | % Rsp. (% ΔT/ΔC or % Regression) (PDX TNBC Model CTG-0052) [%] |
| --- | --- | --- | --- | --- | --- | --- | --- | --- | --- | --- | --- | --- |
| COc1cccc(OCCCN)c1-c1cc(Nc2cnc(C#N)cn2)n[nH]1.CS(=O)(=O)O [Compound A, 5-(5-(2-(3-aminopropoxy)-6-methoxyphenyl)-1H-pyrazol-3-ylamino)pyrazine-2-carbonitrile methanesulfonate hydrate] | 126.1% to −100 | 41.0 | 62.3 | 66.8 | 20.3 | 52.8 | −100.0 | 32.2 | −87.5 | −57.6 | 0.0 | 41.3 |
| CO[C@@H](C)Cn1c(=O)n(C)c2cnc3ccc(-c4cncc(C(C)(C)O)c4)cc3c21 [Compound B, 8-[5-(1-hydroxy-1-methylethyl)pyridin-3-yl]-1-[(2S)-2-methoxypropyl]-3-methyl-1,3-dihydro-2H-imidazo[4,5-c]quinolin-2-one] | 163% to −31 | 17.1 | 65.8 | 107.3 | 7.7 | 60.3 | 34.7 | 54.6 | 51.3 | 86.0 | 23.3 | 8.6 |
